Measurements from patent US20090197933A1, “IMIDAZOLINYLMETHYL ARYL SULFONAMIDE” (priority 2008, published 2009).

Experiments:
alpha-1A adrenoceptors = biological target: T1, alpha-1A adrenoceptors (Homo sapiens, UniProt P35348); test: alpha-1A adrenoceptor partial agonist activity (intrinsic activity and pEC50); assay type: cell-based
T1 sequence (P35348 1-466): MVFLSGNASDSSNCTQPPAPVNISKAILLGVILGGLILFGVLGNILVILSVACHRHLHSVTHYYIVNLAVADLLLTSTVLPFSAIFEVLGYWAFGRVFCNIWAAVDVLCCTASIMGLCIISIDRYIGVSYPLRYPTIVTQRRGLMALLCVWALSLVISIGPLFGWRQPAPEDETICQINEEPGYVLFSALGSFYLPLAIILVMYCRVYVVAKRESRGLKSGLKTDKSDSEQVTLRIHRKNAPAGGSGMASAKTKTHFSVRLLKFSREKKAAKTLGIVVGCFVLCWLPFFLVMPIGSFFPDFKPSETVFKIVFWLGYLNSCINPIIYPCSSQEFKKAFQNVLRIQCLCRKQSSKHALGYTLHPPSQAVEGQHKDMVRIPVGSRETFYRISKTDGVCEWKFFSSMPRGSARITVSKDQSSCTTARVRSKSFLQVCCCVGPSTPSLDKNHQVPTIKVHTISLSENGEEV

[1] = test system: Female, Dutch Belted rabbits; test: Anesthetized rabbit model: intraurethral pressure (IUP) and mean arterial blood pressure (MAP); assay type: in vivo; conditions: i.v.; for durability of IUP response over time: slope of IUP response 2-7 minutes post the first peak, top 3 doses
Protocol: In general, IUP is the intraurethral pressure and is measured as the 2 minute mean from the first peak of the urethral response (FIG. 1). MAP is the mean arterial blood pressure and is measured as the average blood pressure during the 2 minute section where IUP is measured. The durability is the slope of the IUP response in mmHg/min and is calculated immediately after the 2 minute IUP response for 5 minutes (2-7 minutes post the first peak) for the top 3 doses.
Surgery: Female, Dutch Belted rabbits (1.20-2.0 kg, Myrtle's Rabbitry, Tenn.) were anesthetized with isoflurane (3.0% at 2 to 4 L/min) and urethane (1.5 grams/kg, s.c.). In preparation for surgery, the rabbits were shaved, scrubbed (i.e., perineal area, ventral neck, and ventral, caudal surface of the abdomen) and were administered Ringers Lactate Solution (s.c.) to maintain fluids. The femoral vein and carotid artery were isolated and cannulated with PE-50 and PE-90 tubing (Becton-Dickinson), respectively, for the administration of drugs (vein) and the measurement of blood pressure (artery). An abdominal incision was made, exposing the ureters and the bladder. The ureters were isolated and cannulated proximal to the urinary bladder with PE-50 tubing, to drain urine from the kidneys. […]
Experiment: The arterial cannula was connected to a P23XL pressure transducer (Grass Technologies, West Warwick, R.I.) and the arterial pressure transducer and Unisensor urethral transducer catheter were connected to an Gould 13-6615-50 amplifier (Data Sciences International, St. Paul, Minn.) and Gould TA6000 recorder (Data Sciences International, St. Paul, Minn.) in parallel. All data was analyzed using Power Lab Chart version 5.0.2 (ADInstruments, Colorado Springs, Colo.) data acquisition system. […]
Measurements: The change in IUP and MAP from baseline were measured as well as the slope of the IUP response. MAP was first calculated according to the following formula, where Pd is diastolic pressure and Ps is systolic pressure: MAP=Pd+⅓ (Ps−Pd). Pre-dose baseline values for IUP and MAP were assessed during a 2 min period just prior to vehicle or test compound administration. Post-dose values for IUP or MAP were determined during a 2 min period at the first peak in the IUP tracing following vehicle or test compound administration. The change in IUP and MAP induced by vehicle or test compound were then calculated by subtracting the pre-dose value from the post-dose value. The rate of decline (mmHg/min) in the IUP response was determined by taking the average slope during the 5 min. period immediately following the 2 min. efficacy measurement for the top three doses. […]

intrinsic activity, or efficacy, as a partial agonist (alpha-1A adrenoceptors; ideally between 0.35 to 0.60): 0.46 | EC50 (alpha-1A adrenoceptors; read-out: affinity, or pEC50 value (converted)): 631 nM
Compound: Cc1c(CC2=NCCN2)ccc(NS(C)(=O)=O)c1F [Formula I, N-[4-(4,5-Dihydro-1H-imidazol-2-ylmethyl)-2-fluoro-3-methyl-phenyl]-methanesulfonamide]
maximum increase in MAP (arterial blood pressure) [1]: 10.62 mmHg | selectivity for enhancement of intraurethral pressure (IUP) over blood pressure (MAP) (Urethral Selectivity MAP/IUP = ED10 of MAP/ED10 of IUP) ([1]; at the 10 mmHg change in IUP level): 2.13 fold | durability of IUP response over time [1]: improved durability of IUP response over time | durability of IUP response over time ([1]; listed as formula I): increased durability of IUP response over time
